How the values were obtained:
[1] = system: THP1-IFNAR2-WT and THP1-IFNAR2-KO cells; assay: Cell TiterGlo cell viability, IFNAR2 WT versus KO; format: cell-based, human; settings: THP1-IFNAR2-WT vs -KO
Experimental: (§1) Figure 5 Cell apoptosis induced by SHR1032 in AML cell lines is independent of type I interferon. (a–d) RNA-Seq analysis of THP1-STING-R232, THP1-STING-KO and MV4-11 AML cells treated with 1 µM of SHR1032 for 4 h. […] (d) ANNEXIN V staining analysis with flow cytometry in MV4-11, MOLM-16, THP1-STING-WT and THP1-STING-KO cells. (e) Cell viability analysis by CellTiter Glo in THP1-IRFAR2-WT or -KO cells.
Type I interferons have been known to drive apoptosis in AML cells. Therefore, the apoptotic effects might be caused by type I interferons generated by STING activation. To address this question, we examined the IFNβ production with ELISA in MV4-11 and MOLM-16 cells stimulated with SHR1032. […] The activity of type I IFNs is mediated by the IFN-α receptor (IFNAR), which consists of two chains: IFNAR1 and IFNAR2. Knockout of the IFNAR2 gene abolishes the cellular response to type I IFNs.
(§2) THP1 reporter cells were treated for 24 h with a total of 100 k cells and 150 ul media in each well a 96-well plate. […] Luminescence signal was measured using Tecan infinite M1000. EC50 values were calculated using non-linear regression analysis of GraphPad Prism. Cell growth was monitored by CellTiter-Glo Luminescent Cell Viability Assay (Promega) per manufacture’s protocol. GI50 values were calculated using non-linear regression analysis of GraphPad Prism. […]

[2] = system: MV4-11 cells; assay: Annexin V staining by flow cytometry; format: cell-based, human; settings: MV4-11, 16 h; compared to cytarabine
Experimental: as §1
(§3) Cells were incubated with compounds or DMSO for 16 h in a 6-well plate (0.5 × 10^6 cells/well in 2 ml of media). After incubation, cells were collected and washed once in stain buffer (BD Biosciences). Samples were stained with FITC_Annexin V (BioLegend) for 15 min at room temperature. Then the cells were washed twice and resuspended in 200 µl stain buffer, and analyzed with Guava EasyCyte (Millipore).

[3] = system: THP1-STING-KO cells; assay: Annexin V staining by flow cytometry; format: cell-based, human; settings: 16 h
Experimental: as §1, §3

[4] = system: THP1-STING-WT cells; assay: Annexin V staining by flow cytometry; format: cell-based, human; settings: 16 h, compared to cytarabine
Experimental: as §1, §3

[5] = system: MOLM-16 cells; assay: Annexin V staining by flow cytometry; format: cell-based, human; settings: MOLM-16, 16 h; compared to cytarabine
Experimental: as §1, §3

[6] = system: THP1 reporter cells carrying human STING R232, H232 and HAQ variants; assay: IRF luciferase reporter assay in THP1 cells with STING variants; format: cell-based; settings: compared to cGAMP and ADU-S100; 24 h
Description: Five haplotypes of human STING have been identified (R232, H232, HAQ, AQ, and Q alleles), which vary at amino acid positions 71, 230, 232, and 293[16]. R232, HAQ and H232 were reported to be the three major alleles. We tested the responsiveness of the human STING alleles to STING agonists in THP1 reporter cells carrying human STING R232, H232 and HAQ variants. […] To examine whether the activities of STING agonists are on-target, we treated THP1-STING-KO reporter cells with the agonists and no luciferase reporter activity was detected, confirming the cellular activity of STING agonists we observed are specific from STING.
Figure 2 SHR1032 specifically and potently activates STING signaling pathway. […] Cells were stimulated for 24 h with the indicated STING compounds and assessed for luciferase activity. […] IFNβ in media was quantified by human or mouse ELISA kits respectively. […] The amount of pTBK1, total TBK1, STING and α-tubulin was measured by western blotting.
as §2, with “protocol.” for “protocol. GI50 values were calculated using non-linear regression analysis of GraphPad Prism.”

## CCn1nc(C)cc1C(=O)Nc1nc2cc(C(N)=O)cc(OC)c2n1CCC[C@H]1COc2cc(C(N)=O)cc3nc(NC(=O)c4cc(C)nn4CC)n1c23 [SHR1032]
[1]
  effect of IFNA receptor deletion on induced cell death: no effect on cell death induced by SHR1032
[2]
  apoptosis (Annexin V): much higher level of apoptosis
[3]
  apoptosis (Annexin V): no effect
[4]
  apoptosis (Annexin V): comparable level of apoptosis
[5]
  apoptosis (Annexin V): much higher level of apoptosis
[6]
  potency in IRF luciferase reporter: much better potency
